# Data taken from ChEMBL document CHEMBL1201862, “PubChem BioAssay data set” (2004).
# Calls of active or inactive are those of the source.
# Key:
# Streptokinase A = target: T1, Streptokinase A (Streptococcus pyogenes serotype M1, UniProt P10520); assay: S. pyogenes streptokinase expression inhibitors, potency, dose response, plasminogen activation absorbance, OD405 (AID 1914); format: functional, Streptococcus pyogenes M1 GAS;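 further: secreted streptokinase activity via plasminogen activation per viability signal from cell pellet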
# T1 sequence (P10520 whole entry): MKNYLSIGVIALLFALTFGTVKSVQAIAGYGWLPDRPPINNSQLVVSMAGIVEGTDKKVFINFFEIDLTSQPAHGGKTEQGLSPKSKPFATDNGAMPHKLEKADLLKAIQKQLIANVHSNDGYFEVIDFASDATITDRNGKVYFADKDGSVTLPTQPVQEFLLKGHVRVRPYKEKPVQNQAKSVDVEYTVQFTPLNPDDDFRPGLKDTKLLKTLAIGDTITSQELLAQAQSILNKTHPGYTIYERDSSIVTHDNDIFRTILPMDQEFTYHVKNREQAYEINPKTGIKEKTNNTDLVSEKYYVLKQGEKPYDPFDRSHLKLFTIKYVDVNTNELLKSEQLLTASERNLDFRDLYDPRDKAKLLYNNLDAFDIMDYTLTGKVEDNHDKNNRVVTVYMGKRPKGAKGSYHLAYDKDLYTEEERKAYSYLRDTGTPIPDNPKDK
# [1] = target: T2, Zinc finger protein mex-5 (Caenorhabditis elegans, UniProt Q9XUB2); assay: MEX-5/TCR-2 RNA interaction inhibitors, dose response, biochemical, C. elegans, fluorescence polarization (AID 1960)
# T2 sequence (Q9XUB2 whole entry): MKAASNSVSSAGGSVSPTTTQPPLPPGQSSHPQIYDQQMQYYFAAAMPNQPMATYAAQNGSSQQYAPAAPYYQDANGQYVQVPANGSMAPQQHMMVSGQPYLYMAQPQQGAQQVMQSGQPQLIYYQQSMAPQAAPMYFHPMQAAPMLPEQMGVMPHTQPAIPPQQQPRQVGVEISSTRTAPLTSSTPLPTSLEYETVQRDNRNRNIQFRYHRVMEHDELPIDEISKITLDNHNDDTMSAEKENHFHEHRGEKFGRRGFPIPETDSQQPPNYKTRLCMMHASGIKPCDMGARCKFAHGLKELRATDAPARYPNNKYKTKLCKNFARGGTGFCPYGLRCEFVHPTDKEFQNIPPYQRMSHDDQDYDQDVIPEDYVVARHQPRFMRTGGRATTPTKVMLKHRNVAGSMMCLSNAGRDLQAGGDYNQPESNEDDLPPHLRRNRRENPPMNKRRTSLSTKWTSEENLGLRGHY
# [2] = target: Runt-related transcription factor 1/Core-binding factor subunit beta (Homo sapiens, UniProt Q01196+Q13951); assay: inhibitors of RUNX1 Runt–CBFb-SMMHC binding, biochemical, TR-FRET (AID 1438); format: protein assay
# [3] = target: Voltage-gated N-type calcium channel alpha-1B subunit/Amyloid beta A4 precursor protein-binding family A member 1 (Homo sapiens, UniProt Q00975+Q02410); format: protein assay
# [4] = target: Glutathione-S-transferase (Schistosoma japonicum, UniProt Q26513); assay: biotin-GST/anti-GST TR-FRET signal inhibitors, dose response, artefact control for Vif-APOBEC3G degradation inhibitor project, biochemical (AID 1117362); format: functional
# [5] = target: Tyrosine-protein kinase Lck (Homo sapiens, UniProt P06239); format: functional;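 further: lck was assayed as one member of a kinase panel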
# [6] = target: Serine/threonine-protein kinase PAK 4 (Homo sapiens, UniProt O96013); format: functional;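 further: value obtained within a kinome profiling panel in which PAK4 was one of the panel members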
# [7] = target: Vascular endothelial growth factor receptor 1 (Homo sapiens, UniProt P17948); format: functional;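 further: measured within a kinome-wide profiling panel, FLT1 as the panel member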
# [8] = target: Glycogen synthase kinase-3 beta (Homo sapiens, UniProt P49841); format: functional;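 further: value comes from a broad kinome profiling panel, with GSK3B as the panel member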
# Chain of Glycogen synthase kinase-3 beta (P49841 whole entry): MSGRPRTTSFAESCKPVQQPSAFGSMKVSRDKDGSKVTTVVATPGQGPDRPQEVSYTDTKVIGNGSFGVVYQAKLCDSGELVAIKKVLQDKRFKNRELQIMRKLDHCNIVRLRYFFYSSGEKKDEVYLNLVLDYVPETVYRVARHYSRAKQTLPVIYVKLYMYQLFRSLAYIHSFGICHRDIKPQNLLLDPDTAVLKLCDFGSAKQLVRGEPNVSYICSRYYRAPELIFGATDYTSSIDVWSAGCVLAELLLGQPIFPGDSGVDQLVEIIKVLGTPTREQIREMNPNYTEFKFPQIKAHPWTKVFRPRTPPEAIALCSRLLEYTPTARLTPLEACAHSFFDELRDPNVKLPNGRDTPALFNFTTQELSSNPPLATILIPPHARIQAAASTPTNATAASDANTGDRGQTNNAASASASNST
# [9] = target: Dual specificity mitogen-activated protein kinase kinase 2 (Homo sapiens, UniProt P36507); assay: Navigating the Kinome. Panel member name: MAP2K2; format: functional
# Chain of Dual specificity mitogen-activated protein kinase kinase 2 (P36507 whole entry): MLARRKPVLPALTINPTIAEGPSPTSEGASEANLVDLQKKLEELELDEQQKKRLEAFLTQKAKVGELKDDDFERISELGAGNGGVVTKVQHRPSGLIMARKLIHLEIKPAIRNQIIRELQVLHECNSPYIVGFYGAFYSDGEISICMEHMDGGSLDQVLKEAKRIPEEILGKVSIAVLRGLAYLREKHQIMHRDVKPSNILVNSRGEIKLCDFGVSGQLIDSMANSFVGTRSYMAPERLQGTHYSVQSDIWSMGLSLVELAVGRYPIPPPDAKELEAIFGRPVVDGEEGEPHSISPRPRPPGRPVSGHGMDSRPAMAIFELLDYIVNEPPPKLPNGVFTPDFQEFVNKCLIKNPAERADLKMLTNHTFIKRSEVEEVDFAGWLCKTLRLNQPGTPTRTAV
# [10] = target: T3, Heat shock factor protein 1 (Mus musculus, UniProt P38532); assay: inhibition of MG132-induced HSE-luciferase signal, confirmation, cell-based, NIH3T3, luminescence, dose retest (AID 2382); format: functional;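 further: NIH3T3 fibroblasts with HSF1-driven luciferase reporter stressed by proteasome inhibitor MG132; luminescence from HSF1-driven luciferase expression after 8 hours of MG132 stress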
# T3 sequence (P38532 whole entry): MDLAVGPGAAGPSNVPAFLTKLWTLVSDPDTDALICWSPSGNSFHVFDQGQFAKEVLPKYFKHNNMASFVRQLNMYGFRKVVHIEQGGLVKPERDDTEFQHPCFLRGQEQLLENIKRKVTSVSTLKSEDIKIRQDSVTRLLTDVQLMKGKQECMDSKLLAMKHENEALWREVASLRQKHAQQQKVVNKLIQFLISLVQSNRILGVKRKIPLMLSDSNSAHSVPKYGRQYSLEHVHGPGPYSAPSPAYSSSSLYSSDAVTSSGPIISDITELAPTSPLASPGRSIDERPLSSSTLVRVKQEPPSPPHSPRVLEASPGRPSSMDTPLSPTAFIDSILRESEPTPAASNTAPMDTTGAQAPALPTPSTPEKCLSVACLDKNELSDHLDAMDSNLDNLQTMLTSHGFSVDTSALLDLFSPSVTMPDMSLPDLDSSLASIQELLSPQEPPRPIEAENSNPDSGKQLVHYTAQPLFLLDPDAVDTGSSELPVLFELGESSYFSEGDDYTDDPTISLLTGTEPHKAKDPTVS
# BJ = assay: cytotoxicity toward BJ-TERT-LT-ST fibroblasts, dose response, cell-based, RAS-independent, luminescence (AID 1935); format: functional; settings: Homo sapiens;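 further: BJ fibroblasts immortalized with TERT plus LT and ST oncogenes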
# Nonstructural protein 1 = Nonstructural protein 1 (Influenza A virus, UniProt Q194T2); format: functional, Influenza A virus (A/California/07/2009(H1N1))
# [11] = target: Calcium/calmodulin-dependent protein kinase type II subunit gamma (Homo sapiens, UniProt Q13555); format: functional
# Chain of Calcium/calmodulin-dependent protein kinase type II subunit gamma (Q13555 whole entry): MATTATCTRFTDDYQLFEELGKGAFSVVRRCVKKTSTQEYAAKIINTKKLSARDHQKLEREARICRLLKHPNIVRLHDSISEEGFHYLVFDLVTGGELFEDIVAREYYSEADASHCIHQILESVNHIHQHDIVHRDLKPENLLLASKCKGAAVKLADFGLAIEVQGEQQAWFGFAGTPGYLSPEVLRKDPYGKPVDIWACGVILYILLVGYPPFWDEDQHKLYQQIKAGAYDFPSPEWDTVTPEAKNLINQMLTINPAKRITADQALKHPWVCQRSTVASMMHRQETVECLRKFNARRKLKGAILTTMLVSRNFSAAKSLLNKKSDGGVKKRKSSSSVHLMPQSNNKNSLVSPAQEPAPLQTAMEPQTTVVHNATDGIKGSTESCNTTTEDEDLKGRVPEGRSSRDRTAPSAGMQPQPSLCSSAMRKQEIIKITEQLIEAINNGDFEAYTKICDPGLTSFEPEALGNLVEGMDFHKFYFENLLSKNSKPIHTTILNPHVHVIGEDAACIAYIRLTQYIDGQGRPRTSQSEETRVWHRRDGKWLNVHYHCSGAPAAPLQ
# [12] = target: Testis-specific serine/threonine-protein kinase 2 (Homo sapiens, UniProt Q96PF2); format: functional;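 further: part of the Navigating the Kinome panel, target entry STK22B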
# [13] = target: Serine/threonine-protein kinase 17A (Homo sapiens, UniProt Q9UEE5); format: functional
# [14] = target: Casein kinase I isoform gamma-1 (Homo sapiens, UniProt Q9HCP0); format: functional;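 further: measured as the CSNK1G1 member of a kinome profiling panel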
# Chain of Casein kinase I isoform gamma-1 (Q9HCP0 whole entry, canonical isoform): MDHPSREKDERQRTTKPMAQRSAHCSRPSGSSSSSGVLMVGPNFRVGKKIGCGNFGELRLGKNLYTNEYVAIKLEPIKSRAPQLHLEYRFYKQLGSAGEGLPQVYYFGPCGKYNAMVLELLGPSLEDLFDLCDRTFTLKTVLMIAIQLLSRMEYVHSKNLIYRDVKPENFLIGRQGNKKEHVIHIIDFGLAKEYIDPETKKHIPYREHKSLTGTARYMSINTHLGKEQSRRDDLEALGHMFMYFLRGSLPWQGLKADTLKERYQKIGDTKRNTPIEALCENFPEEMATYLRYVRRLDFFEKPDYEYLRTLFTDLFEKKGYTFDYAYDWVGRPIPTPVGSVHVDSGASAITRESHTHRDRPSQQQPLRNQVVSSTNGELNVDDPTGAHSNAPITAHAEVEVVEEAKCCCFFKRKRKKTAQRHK
# [15] = target: Tyrosine-protein kinase Lyn (Homo sapiens, UniProt P07948); format: functional;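 further: lyn as one member of a kinase panel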
# Insulin receptor = Insulin receptor (Homo sapiens, UniProt P06213); format: functional;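 further: insulin receptor kinase tested as one member of a kinome-wide kinase panel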
# Chain of Insulin receptor (P06213 28-758 limits assumed): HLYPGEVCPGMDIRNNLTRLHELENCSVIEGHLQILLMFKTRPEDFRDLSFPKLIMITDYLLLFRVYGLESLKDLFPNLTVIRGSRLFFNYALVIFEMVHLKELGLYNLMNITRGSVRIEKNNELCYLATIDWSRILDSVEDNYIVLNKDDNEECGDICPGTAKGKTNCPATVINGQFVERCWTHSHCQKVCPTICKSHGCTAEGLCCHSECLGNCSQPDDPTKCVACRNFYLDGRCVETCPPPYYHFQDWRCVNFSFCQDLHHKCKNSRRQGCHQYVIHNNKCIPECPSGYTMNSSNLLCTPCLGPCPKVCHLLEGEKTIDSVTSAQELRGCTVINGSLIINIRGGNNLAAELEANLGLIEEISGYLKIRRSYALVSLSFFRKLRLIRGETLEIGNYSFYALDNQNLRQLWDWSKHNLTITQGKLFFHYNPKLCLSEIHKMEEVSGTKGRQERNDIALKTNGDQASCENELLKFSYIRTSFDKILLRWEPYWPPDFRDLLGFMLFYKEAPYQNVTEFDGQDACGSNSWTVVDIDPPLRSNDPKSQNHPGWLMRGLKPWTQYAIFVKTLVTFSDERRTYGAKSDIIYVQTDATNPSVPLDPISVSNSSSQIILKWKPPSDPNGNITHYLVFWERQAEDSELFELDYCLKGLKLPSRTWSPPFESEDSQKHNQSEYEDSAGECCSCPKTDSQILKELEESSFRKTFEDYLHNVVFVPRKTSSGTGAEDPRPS
# Chain of Insulin receptor (P06213 763-1382 limits assumed): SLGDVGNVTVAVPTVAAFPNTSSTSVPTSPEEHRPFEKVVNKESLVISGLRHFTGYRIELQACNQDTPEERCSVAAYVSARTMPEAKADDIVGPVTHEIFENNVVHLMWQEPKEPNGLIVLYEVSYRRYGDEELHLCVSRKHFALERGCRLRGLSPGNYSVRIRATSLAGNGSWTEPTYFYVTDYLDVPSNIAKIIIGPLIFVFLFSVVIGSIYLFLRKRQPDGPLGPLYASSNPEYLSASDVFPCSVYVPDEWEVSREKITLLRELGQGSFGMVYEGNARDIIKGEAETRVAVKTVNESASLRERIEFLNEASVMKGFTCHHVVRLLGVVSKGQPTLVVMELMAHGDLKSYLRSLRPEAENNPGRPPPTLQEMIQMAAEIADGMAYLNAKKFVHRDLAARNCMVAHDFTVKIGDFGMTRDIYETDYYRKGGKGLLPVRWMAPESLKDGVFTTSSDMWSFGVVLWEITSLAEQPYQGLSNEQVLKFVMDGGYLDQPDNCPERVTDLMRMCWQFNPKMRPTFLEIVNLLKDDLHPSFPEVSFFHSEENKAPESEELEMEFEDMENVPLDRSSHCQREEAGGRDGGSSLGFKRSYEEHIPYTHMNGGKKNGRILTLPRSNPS
# [16] = target: Serine/threonine-protein kinase pim-3 (Homo sapiens, UniProt Q86V86); format: functional;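 further: value obtained as one member of a broad kinase panel profiling effort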
# [17] = target: Tyrosine-protein kinase Srms (Homo sapiens, UniProt Q9H3Y6); format: functional;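 further: SRMS measured as one member of a kinome-wide kinase profiling panel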
# [18] = target: Serine/threonine-protein kinase Nek4 (Homo sapiens, UniProt P51957); format: functional
# [19] = target: Maternal embryonic leucine zipper kinase (Homo sapiens, UniProt Q14680); format: functional
# [20] = target: Serine/threonine-protein kinase MRCK alpha (Homo sapiens, UniProt Q5VT25); format: functional
# Chain of Serine/threonine-protein kinase MRCK alpha (Q5VT25 whole entry): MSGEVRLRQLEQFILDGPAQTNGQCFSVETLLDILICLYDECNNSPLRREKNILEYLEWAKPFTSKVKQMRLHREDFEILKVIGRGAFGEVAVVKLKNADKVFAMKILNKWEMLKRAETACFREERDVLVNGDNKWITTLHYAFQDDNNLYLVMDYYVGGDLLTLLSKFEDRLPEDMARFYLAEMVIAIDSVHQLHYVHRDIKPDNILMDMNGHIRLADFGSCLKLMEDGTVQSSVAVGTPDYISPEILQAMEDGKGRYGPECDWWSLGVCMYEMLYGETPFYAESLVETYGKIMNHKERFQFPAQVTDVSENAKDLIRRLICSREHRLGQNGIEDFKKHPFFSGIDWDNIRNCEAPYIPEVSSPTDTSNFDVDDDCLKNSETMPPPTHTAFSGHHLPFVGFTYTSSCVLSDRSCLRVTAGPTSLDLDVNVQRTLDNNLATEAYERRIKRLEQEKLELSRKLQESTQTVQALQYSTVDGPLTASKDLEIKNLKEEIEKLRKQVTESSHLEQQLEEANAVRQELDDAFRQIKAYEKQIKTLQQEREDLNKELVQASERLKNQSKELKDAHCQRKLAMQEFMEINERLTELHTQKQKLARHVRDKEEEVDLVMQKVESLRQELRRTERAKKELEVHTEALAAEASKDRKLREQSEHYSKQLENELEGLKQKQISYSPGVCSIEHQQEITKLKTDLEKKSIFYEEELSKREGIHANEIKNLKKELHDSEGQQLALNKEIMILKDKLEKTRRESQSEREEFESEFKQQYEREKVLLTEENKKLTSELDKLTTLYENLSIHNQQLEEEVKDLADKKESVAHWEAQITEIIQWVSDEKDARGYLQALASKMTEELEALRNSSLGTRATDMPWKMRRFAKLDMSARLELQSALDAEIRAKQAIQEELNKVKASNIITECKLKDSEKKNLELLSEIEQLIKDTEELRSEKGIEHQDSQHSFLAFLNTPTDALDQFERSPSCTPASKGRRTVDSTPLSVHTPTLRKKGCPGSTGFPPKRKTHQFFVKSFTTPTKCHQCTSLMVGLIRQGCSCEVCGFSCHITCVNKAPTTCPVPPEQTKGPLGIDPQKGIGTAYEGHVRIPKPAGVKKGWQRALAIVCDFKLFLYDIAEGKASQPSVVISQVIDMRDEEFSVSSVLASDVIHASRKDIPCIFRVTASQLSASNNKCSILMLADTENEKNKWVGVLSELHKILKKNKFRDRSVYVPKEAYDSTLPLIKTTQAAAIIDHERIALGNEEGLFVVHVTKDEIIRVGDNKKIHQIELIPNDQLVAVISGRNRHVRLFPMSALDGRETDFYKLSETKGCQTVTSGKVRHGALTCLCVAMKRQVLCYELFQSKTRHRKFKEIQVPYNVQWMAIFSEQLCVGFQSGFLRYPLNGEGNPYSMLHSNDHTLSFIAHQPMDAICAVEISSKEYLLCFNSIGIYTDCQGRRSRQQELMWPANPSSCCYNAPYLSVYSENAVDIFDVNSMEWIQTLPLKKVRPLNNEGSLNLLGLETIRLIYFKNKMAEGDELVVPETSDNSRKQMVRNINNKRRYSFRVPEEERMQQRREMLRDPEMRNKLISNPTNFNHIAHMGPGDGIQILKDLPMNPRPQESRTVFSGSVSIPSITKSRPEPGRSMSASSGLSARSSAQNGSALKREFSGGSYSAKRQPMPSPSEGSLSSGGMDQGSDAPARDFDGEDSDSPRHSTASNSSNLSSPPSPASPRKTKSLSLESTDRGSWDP
structure (smiles),measurement,setting,value
CC(C)(C)c1cc[n+](C2=C([N-]S(=O)(=O)c3cccs3)C(=O)c3ccccc3C2=O)cc1,EC50,Streptokinase A,3.8 µM (active)
COc1cccc2c1NC(C(=O)O)C1CC=CC21 (centres undefined),EC50,[1],8.25 µM (active)
same,IC50,[2],15.4 µM (active)
same,IC50,[3],4.46 µM (active)
same,IC50,[4],> 100 µM (active)
COc1c(-c2nc3ccccc3[nH]2)c(O)cc2oc(C)cc(=O)c12,Ki,[5],> 6.31 µM (inactive)
same,Ki,[6],> 5.01 µM (inactive)
same,Ki,[7],2 µM (active)
same,Ki,[8],0.398 µM (active)
same,Ki,[9],0.398 µM (active)
CCc1ccc(S(=O)(=O)/N=C2\C=C(Nc3ccc(O)cc3)C(=O)c3ccccc32)cc1,EC50,[10],1.16 µM (active)
same,EC50,BJ,2.83 µM (active)
same,IC50,Nonstructural protein 1,5.88 µM (active)
Cc1ccc(F)c(NC(=O)Nc2ccc(-c3cccc4[nH]nc(N)c34)cc2)c1 [LINIFANIB],Ki,[11],3.98 µM (active)
same,Ki,[12],> 1.58 µM (inactive)
same,Ki,[13],> 3.98 µM (inactive)
same,Ki,[14],5.01 µM (active)
same,Ki,[15],0.251 µM (active)
same,Ki,Insulin receptor,0.794 µM (active)
same,Ki,[16],> 7.94 µM (inactive)
same,Ki,[17],1.58 µM (active)
same,Ki,[18],> 6.31 µM (inactive)
same,Ki,[19],2 µM (active)
same,Ki,[20],> 10 µM (inactive)
